# Measured values as given in patent US20150133456A1, “FLUOROERGOLINE DERIVATIVES AND USES THEREOF” (MAP PHARMACEUTICALS, INC., priority 2012, published 2015).
# pEC50, pIC50: −log10 of the molar value. Entries after “also recorded” stand apart in the source; their conditions may differ.
# Experiments:
# [1] = target: T1, human 5-HT2B receptor (Homo sapiens, UniProt P41595); assay: Aequorin assay, agonist activity at 5-HT2B; type: cell-based; details: 0.01 nM to 20,000 nM; versus Emax of α-methyl-5-HT
# T1 construct: host or cells: CHO-K1 coexpressing mitochondrial apoaequorin
# Description: Percentage activation values were determined for 2-CF3 dihydroergotamine at the 5-HT2B receptor.
# [2] = target: T1, human 5-HT2B receptor; assay: Aequorin assay, antagonist activity at 5-HT2B; type: cell-based
# Description: Percentage inhibition values were determined for 2-CF3 dihydroergotamine on the 5-HT2B receptor.
# [3] = target: T2, α1A receptor (Homo sapiens, UniProt P35348); assay: Competitive antagonist activity, adrenergic α1A; type: cell-based; details: read-out: IC50, α1A antagonism
# T2 construct: expressed in transfected cells
# [4] = system: NMDA (NR1/NR2A/NR2B/NR2C/NR2D); assay: NMDA receptor Fluo-8 calcium FLIPR assay, agonist and antagonist; type: cell-based, human; details: NMDA channels in HEK293
# Description: The following channels were evaluated: Cloned NMDA receptor (NR1/NR2A) channel (encoded by the GRIN1 and GRIN2A genes, coexpressed in HEK293 cells; Cloned NMDA receptor (NR1/NR2B) channel (encoded by the GRIN1 and GRIN2B genes, coexpressed in HEK293 cells; Cloned NMDA receptor (NR1/NR2C) channel (encoded by the GRIN1 and GRIN2C genes, coexpressed in HEK293 cells; and Cloned NMDA receptor (NR1/NR2D) channel (encoded by the GRIN1 and GRIN2D genes, transiently coexpressed in HEK293 cells.
# For the agonist assessment, the effect of 2-CF3-DHE was evaluated in the absence of the positive control agonist. The signal, elicited in the presence of the agonist (100 μM Glutamic acid+20 μM Glycine), was set to 100% activation and the signal in the presence of the vehicle control (Mg^2+-free HB-PS) was set to 0% activation.
# For the antagonist assessment, NR1/NR2A and NR1/NR2B was activated with the positive control agonist (100 μM Glutamic acid+20 μM Glycine). The ability of 2-CF3-DHE to inhibit the signal was examined after agonist stimulation and compared to the positive control antagonist (MK-801).
# [5] = target: human 5-HT1B receptor (Homo sapiens, UniProt P28222); assay: GTPγS agonist assay, 5-HT1B
# Sequence of human 5-HT1B receptor (P28222 whole entry): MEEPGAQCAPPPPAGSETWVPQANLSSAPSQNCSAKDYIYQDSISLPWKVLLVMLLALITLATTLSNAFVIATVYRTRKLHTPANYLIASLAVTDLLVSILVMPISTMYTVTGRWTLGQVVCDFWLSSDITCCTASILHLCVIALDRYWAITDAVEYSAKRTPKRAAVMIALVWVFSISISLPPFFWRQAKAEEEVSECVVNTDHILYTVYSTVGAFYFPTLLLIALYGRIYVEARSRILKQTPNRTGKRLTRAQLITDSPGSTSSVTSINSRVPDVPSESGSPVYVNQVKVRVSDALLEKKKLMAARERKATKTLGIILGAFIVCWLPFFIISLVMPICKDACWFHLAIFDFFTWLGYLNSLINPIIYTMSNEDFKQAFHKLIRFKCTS
# Description: The mixture was shaken for 2 minutes prior to a 60 min incubation. It was then centrifuged for 10 minutes and counted for 1 minute with a Perkin Elmer TopCount reader. The resulting emission of light was recorded using a luminometer. Agonist percentage activation determinations were obtained by comparing with the Emax of the reference agonist α-methyl-5-HT.
# T1 sequence (P41595 whole entry): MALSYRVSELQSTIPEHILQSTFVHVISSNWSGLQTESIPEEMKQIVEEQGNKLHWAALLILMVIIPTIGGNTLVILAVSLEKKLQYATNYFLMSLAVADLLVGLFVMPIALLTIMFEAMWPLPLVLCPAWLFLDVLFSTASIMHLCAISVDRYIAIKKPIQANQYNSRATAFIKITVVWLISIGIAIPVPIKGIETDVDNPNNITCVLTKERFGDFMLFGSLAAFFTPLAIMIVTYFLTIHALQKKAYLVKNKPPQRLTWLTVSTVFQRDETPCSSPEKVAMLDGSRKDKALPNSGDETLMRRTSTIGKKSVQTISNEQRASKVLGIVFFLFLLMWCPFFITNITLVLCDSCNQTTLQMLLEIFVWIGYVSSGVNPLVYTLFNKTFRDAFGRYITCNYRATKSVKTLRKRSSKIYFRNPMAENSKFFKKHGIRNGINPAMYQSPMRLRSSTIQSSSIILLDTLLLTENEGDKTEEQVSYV
# T2 sequence (P35348 whole entry): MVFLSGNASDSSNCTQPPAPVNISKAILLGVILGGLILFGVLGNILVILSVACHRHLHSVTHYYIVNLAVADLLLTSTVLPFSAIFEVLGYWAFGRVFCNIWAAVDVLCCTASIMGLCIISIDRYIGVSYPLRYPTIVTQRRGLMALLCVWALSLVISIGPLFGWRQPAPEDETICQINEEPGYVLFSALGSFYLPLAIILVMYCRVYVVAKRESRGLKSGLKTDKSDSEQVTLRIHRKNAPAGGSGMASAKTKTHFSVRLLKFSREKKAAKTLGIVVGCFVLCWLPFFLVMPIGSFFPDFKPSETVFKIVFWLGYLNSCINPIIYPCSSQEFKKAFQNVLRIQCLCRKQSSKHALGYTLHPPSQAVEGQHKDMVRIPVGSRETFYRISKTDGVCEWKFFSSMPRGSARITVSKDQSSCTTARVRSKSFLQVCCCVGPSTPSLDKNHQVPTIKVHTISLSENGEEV
smiles,measurement,setting,value
CN1C[C@H](C(=O)N[C@]2(C)O[C@@]3(O)[C@@H]4CCCN4C(=O)[C@H](Cc4ccccc4)N3C2=O)CC2c3cccc4[nH]c(C(F)(F)F)c(c34)CC21 (stereo partly drawn) [2-CF3-dihydroergotamine],agonist activity at the 5-HT2B receptor,[1],no agonist activity; also recorded: little agonist activity
same,antagonism of the 5-HT2B receptor,[2]; FIG. 2,potent antagonism
same,pIC50,"[2]; reference agonist at its EC80, read-out: IC50, 5-HT2B antagonism",6.69
same,pIC50,[3],6.68
same,Activity (Agonism: EC50; Antagonism: IC50),[4],Inactive
same,pEC50,[5],6.39
